Test results published in ChEMBL document CHEMBL1146165, “Structure-based de novo design, synthesis, and biological evaluation of the indole-based PPARgamma ligands (I)” (Bioorg Med Chem Lett, 2006).

Biological target: T1, Peroxisome proliferator-activated receptor gamma (Homo sapiens, UniProt P37231)
T1 sequence (P37231 whole entry): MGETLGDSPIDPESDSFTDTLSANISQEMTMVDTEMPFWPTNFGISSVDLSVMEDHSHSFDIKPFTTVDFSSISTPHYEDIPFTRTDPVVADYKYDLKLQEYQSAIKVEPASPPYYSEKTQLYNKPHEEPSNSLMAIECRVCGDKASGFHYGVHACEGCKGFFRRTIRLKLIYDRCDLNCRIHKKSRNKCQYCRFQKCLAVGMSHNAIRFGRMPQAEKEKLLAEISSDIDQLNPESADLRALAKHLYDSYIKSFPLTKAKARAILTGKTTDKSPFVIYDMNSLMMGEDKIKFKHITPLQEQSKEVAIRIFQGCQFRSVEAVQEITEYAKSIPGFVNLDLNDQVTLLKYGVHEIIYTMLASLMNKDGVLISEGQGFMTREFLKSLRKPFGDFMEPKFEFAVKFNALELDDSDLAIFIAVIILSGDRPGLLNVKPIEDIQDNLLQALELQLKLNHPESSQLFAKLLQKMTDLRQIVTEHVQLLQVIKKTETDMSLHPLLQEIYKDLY
Assay: Binding affinity to human PPARgamma

`O=C(NC(Cc1c[nH]c2cc(OCc3ccccc3)ccc12)C(=O)O)c1ccc(Cl)cc1` (configuration not stated) showed a Kd of 6.86 µM.
`O=C(NC(Cc1c[nH]c2cc(OCc3ccccc3)ccc12)(C(=O)O)C(=O)O)c1ccc(Cl)cc1` was tested, and the Kd was 8.69 µM.
